Assay results published in article PMC5249144, “T Cell Subset and Stimulation Strength-Dependent Modulation of T Cell Activation by Kv1.3 Blockers” (PLoS ONE, 2017).
Where two headings read alike, the source gives them in different places.

Key:
[1] = test system: thapsigargin stimulated human blood; experiment: Thapsigargin stimulated whole blood IL-2 production; type: cell-based; details: whole blood diluted with equal volume IMDM, 20 hours
Procedure: Heparinized human blood was diluted with an equal volume of IMDM medium (Life Technologies) supplemented with 2% normal human A/B serum and plated at 200μl/well in 96-well plates for thapsigargin (Alomone) stimulation. CD4 T cells were plated at 5 x 10^5 cells/well in 96-well plates with 200μl medium/well. Blood or T cell samples were pre-treated with blockers or inhibitors for 30 minutes prior to stimulation with thapsigargin at 10μM or other concentrations as indicated for 20 hours. Cytokines in culture supernatants were measured as described in cytokine detection section.
(§1) Cytokines in supernatants collected from blood or T cell cultures were measured with ELISA or electrochemiluminescent assays. IL-2 was measured by ELISA using the human IL-2 Quantikine Kit (R&D Systems). Other cytokines were detected using multiplex human cytokine electro-chemiluminescent kit (Meso Scale Discovery).

[2] = test system: human CD4 T cells; experiment: Calcium flux in CD4 T cells, anti-CD3/CD28; type: cell-based; details: BTP2 1μM
Procedure: (§2) T cells were loaded with 3μM each of Fluo4 and Fura red (Molecular Probes, Invitrogen) for 45 minutes in the dark at 37°C in cell loading medium (DMEM medium with 10mM HEPES and 10% fetal calf serum) in the presence of 0.01% pluronic acid (Molecular Probes). Dye-loaded cells were rinsed twice with loading medium, incubated with 10μg/ml mouse anti-CD3 (BD Biosciences) and 2.5μg/ml mouse anti-CD28 (BD Biosciences) for 30 minutes at room temperature, and then rinsed again with loading medium to be ready for calcium flux studies. Cells were acquired with FACS LSRII and cell activation was initiated by addition of goat anti-mouse antibody (Jackson ImmunoResearch) to final 10μg/ml. CD4 T cells were also stimulated with 1μM thapsigargin. Kinetics of calcium flux in activated cells were monitored by reading the calcium dependent Fluo4 emission signals at 530nm compared to non-specific Fura red signals at 685nm. Calcium flux was calculated as ratio of Fluo4 to Fura red emission signals.

[3] = test system: human CD4 T cells; experiment: Calcium flux in CD4 T cells, thapsigargin; type: cell-based; details: BTP2 1μM, thapsigargin 1μM, monitored for 10 minutes
Procedure: as §2

[4] = test system: human CD4 T cell subsets; type: cell-based
Text: (§3) Human PBMC were purified from donor blood by Ficoll-Paque (GE Healthcare) density centrifugation. CD4 or CD8 T cells were purified from human PBMC by negative selection using human CD4 or CD8 T cell isolation kit (Miltenyi Biotec) respectively. Naïve or memory CD4 T cells were isolated from CD4 T cells by negative selection using human naïve or memory CD4 T cell isolation kit (Miltenyi Biotec) respectively. Central and effector memory CD4 T cells were separated from memory CD4 T cells using biotinylated anti-CCR7 (BD Biosciences) and streptavidin coated magnetic beads (Miltenyie Biotec). Cells after treatment with antibodies and magnetic beads were purified with autoMACS (Miltenyi Biotec).
(§4) T cells were cultured in 96-well plates (Thermo Scientific) with 200μl medium/well. […]
(§5) Proliferation of T cells was measured by overnight pulsing with 1μCi/well of ^3H-thymidine (Perkin Elmer). […] Filter plates were soaked with scintillant (Perkin Elmer) and radioactivity was counted using a Topcount (Packard).
In order to further understand the activity profile of Kv1.3 blockers on T cells, we compared the effects of Kv1.3 blockers on primary naïve, central memory and effector memory CD4 T cells. […] Purified T cells were activated with anti-CD3 in the presence of mitomycin C treated PBMC and the effects of Kv1.3 blockers on T cell proliferation were monitored and compared to cyclosporine A and BTP2.

[5] = test system: Kv1.3; details: ref [5], [20]–[23]; cited from earlier work
[6] = test system: PBMC from allergic rhinitis patients; type: cell-based, human
Procedure: T cells were cultured in 96-well plates (Thermo Scientific) with 200μl medium/well. Culture medium was RPMI-1640 medium supplemented with 2% human A/B serum (Valley Biomedical Prod & Srv Inc.), 2 mM glutamine, 1mM sodium pyruvate, 10mM HEPES, 1mM MEM nonessential amino acid solution, and 100 U/ml each of penicillin G and streptomycin (all culture reagents from Life Technologies except for human serum). T cells were pre-treated with Kv1.3 blockers and other inhibitors for 30 minutes before stimulation. All assays were conducted with samples in duplicates or triplicates.
For T cell pan-activation with beads coated with anti-CD3 and anti-CD28 (eBioscience), T cells at 2 x 10^5 cells/well in 96-well flat-bottom plates were stimulated overnight with anti-CD3 and anti-CD28 coated beads (Miltenyi Biotec) at 2:1 bead/cell ratio or as indicated. For T cell pan-activation with anti-CD3, T cells at 5 x 10^4 cells/well in 96-well U-bottom plates were stimulated for 2 days with 1ng/ml of anti-CD3 in the presence of mitomycin C treated autologous PBMC at 1:1 T cell/PBMC ratio. […]
as §5

[7] = test system: human CD4 and CD8 T cells; type: cell-based
Text: as §3, §4, §5, §1

| Compound | inhibition of IL-2 release from thapsigargin stimulated whole blood, in words [1] | reduction of calcium flux, in words ([2]; anti-CD3/CD28, monitored for 10 minutes) | calcium flux by T cell population, in words ([2]; ShK 1nM, activated CD4 T cells, Fig 4C (anti-CD3/CD28 or thapsigargin)) | reduction of calcium flux, in words [3] | inhibition of proliferation of T cell subsets, in words ([4]; maximal efficacious concentrations, naïve, Tcm, Tem CD4 T cells, anti-CD3/PBMC) | Kv1.3 block, in words [5] | ragweed proliferative response, in words [6] | inhibition of proliferation of T cell subsets, in words [4] | block of T cell activation [7] | inhibition of T cell activation, in words [7] |
| --- | --- | --- | --- | --- | --- | --- | --- | --- | --- | --- |
| Cc1nnsc1C(=O)Nc1ccc(-n2nc(C(F)(F)F)cc2C(F)(F)F)cc1 [BTP2] | fully efficacious | significantly reduced the calcium flux levels | reduced calcium flux in all activated T cells | significantly reduced the calcium flux levels | complete inhibition |  |  |  |  |  |
| CC[C@H](C)[C@@H]1NC(=O)[C@@H]2CSSC[C@@H]3NC(=O)[C@H](CCCCN)NC(=O)CNC(=O)[C@H](CC(N)=O)NC(=O)[C@H](CCSC)NC(=O)[C@H](CSSC[C@H](NC(=O)[C@H](CCCCN)NC(=O)[C@@H](NC(=O)[C@H](CC(=O)O)NC(=O)[C@@H](NC(=O)[C@@H]4CCCN4C(=O)[C@@H](NC(=O)CN)C(C)C)[C@@H](C)O)C(C)C)C(=O)N[C@@H](CCCNC(=N)N)C(=O)NCC(=O)N[C@@H](CO)C(=O)N4CCC[C@H]4C(=O)N[C@@H](CCC(N)=O)C(=O)N2)NC(=O)[C@H](CCCCN)NC(=O)CNC(=O)[C@H](Cc2ccccc2)NC(=O)[C@H](CCCNC(=N)N)NC(=O)[C@H](CCSC)NC(=O)CNC(=O)[C@H](C)NC(=O)[C@H](CC(=O)O)NC(=O)[C@H](CCCCN)NC(=O)[C@H](CSSC[C@@H](C(=O)N[C@H](C(=O)N2CCC[C@H]2C(=O)N[C@@H](CCCCN)C(=O)O)[C@@H](C)O)NC(=O)[C@H](Cc2c[nH]cn2)NC3=O)NC(=O)[C@@H]2CCCN2C(=O)[C@H](CCC(N)=O)NC1=O [OdK2] |  |  |  |  |  | potent blockers of Kv1.3 |  |  |  |  |
| cyclosporine A | fully efficacious |  |  |  |  |  | reduced the proliferative response to its basal level | complete inhibition | ~100% | fully inhibits T cell activation in all stimulation conditions |
